Experiments:
CYP2C8 = biological target: T1, CYP2C8 (Homo sapiens, UniProt P10632); test: CYP Inhibition Assay (CYP2C8, human liver microsomes, paclitaxel substrate); type: in vitro ADME; details: pH 7.4; pooled human liver microsomes 0.1 mg/mL, probe substrate paclitaxel
T1 construct: Pooled human microsomes were obtained from Sekisui XenoTech, KS; tissue Sekisui XenoTech, KS; host or cells: pooled human liver microsomes
T1 sequence (P10632 1-490): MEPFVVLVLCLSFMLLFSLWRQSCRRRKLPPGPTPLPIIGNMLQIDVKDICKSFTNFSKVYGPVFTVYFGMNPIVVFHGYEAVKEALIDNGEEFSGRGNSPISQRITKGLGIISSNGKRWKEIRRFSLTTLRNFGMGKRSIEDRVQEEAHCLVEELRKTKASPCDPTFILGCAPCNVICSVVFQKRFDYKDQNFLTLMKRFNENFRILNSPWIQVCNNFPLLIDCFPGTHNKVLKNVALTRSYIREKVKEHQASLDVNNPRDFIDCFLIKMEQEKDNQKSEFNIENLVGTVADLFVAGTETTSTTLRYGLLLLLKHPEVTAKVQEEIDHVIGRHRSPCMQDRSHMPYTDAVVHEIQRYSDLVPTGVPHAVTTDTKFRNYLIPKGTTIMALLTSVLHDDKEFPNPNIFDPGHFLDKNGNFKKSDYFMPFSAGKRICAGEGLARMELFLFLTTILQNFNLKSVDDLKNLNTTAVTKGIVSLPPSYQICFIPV
How it was run: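 Pooled human liver microsomes (0.1 mg/mL) in 50 mM potassium phosphate pH 7.4 with compound, started with 1 mM NADPH, 5 min at 37° C, duplicate.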

GR = biological target: T2, GR (Homo sapiens, UniProt P04150); test: In Vitro GR Luciferase Reporter Assay (antagonist mode, CHO-K1-GR-MMTV-Luc reporter cells); type: cell-based; details: antagonist mode, 10 nM Dexamethasone
T2 construct: expressed in transfected cells; host or cells: CHO-K1
T2 sequence (P04150 1-777): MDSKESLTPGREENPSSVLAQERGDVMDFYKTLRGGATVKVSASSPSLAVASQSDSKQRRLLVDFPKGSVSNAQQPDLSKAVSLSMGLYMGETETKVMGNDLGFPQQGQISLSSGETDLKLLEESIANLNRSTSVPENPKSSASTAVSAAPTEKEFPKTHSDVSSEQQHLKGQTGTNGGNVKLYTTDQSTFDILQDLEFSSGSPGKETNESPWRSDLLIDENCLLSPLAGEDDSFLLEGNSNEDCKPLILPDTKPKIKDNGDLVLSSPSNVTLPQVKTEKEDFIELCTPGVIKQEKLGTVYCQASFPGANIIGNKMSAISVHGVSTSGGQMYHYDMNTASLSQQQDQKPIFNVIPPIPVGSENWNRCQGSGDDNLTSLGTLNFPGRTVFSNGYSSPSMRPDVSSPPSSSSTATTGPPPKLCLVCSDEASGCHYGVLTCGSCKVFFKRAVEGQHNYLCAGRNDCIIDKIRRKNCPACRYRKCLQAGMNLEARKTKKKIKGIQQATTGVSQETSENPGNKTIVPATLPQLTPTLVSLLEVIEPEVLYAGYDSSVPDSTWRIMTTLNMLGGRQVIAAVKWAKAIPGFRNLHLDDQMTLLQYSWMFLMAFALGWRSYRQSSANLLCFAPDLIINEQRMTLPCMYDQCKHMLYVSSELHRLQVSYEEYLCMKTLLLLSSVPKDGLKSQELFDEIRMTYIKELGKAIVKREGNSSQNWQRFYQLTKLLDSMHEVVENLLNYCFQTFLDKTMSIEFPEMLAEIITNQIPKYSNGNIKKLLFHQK
How it was run: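 CHO-K1-GR-MMTV-Luc cells in phenol red-free DMEM with 10% CSS, stimulated with 10 nM dexamethasone (final) and treated with 8-point 1:5 compound dilutions for about 18-24 h at 37° C. Luciferase measured by OneGlo luminescence; IC50 derived for inhibition of GR activity.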

| SMILES | inhibition at 5 min (CYP2C8) [%] | IC50 (GR) [µM] |
| --- | --- | --- |
| CCN([C@H]1CCC2=Cc3c(cnn3-c3ccc(F)cc3)C[C@]2(C(=O)c2cc(C(F)(F)F)ccn2)C1)S(=O)(=O)C1CCCC1 [Example 243, N-ethyl-N-((4aS,6S)-1-(4-fluorophenyl)-4a-(4-(trifluoromethyl)picolinoyl)-4,4a,5,6,7,8-hexahydro-1H-benzo[f]indazol-6-yl)cyclopentanesulfonamide] | 50 to 75 | ≤ 0.1 |
| Cn1ccc(S(=O)(=O)N(CC2CC2)[C@H]2CCC3=Cc4c(cnn4-c4ccc(F)cc4)C[C@]3(C(=O)c3cc(F)ccn3)C2)n1 [Example 244, N-(cyclopropylmethyl)-N-((4aS,6S)-1-(4-fluorophenyl)-4a-(4-fluoropicolinoyl)-4,4a,5,6,7,8-hexahydro-1H-benzo[f]indazol-6-yl)-1-methyl-1H-pyrazole-3-sulfonamide] | 75 to 90 | ≤ 0.1 |
| O=C(c1cc(F)ccn1)[C@]12Cc3cnn(-c4ccc(F)cc4)c3C=C1CC[C@H](N(CC1(O)CC1)S(=O)(=O)c1ccc(F)cc1)C2 [Example 254, 4-fluoro-N-((4aS,6S)-1-(4-fluorophenyl)-4a-(4-fluoropicolinoyl)-4,4a,5,6,7,8-hexahydro-1H-benzo[f]indazol-6-yl)-N-((1-hydroxycyclopropyl)methyl) benzenesulfonamide] | 50 to 75 | ≤ 0.1 |
| Cn1ccc(S(=O)(=O)N(C2CC2)[C@H]2CCC3=Cc4c(cnn4-c4ccc(F)cc4)C[C@]3(C(=O)c3cc(C(F)F)ccn3)C2)n1 [Example 258, N-cyclopropyl-N-((4aS,6S)-4a-(4-(difluoromethyl)picolinoyl)-1-(4-fluorophenyl)-4,4a,5,6,7,8-hexahydro-1H-benzo[f]indazol-6-yl)-1-methyl-1H-pyrazole-3-sulfonamide] | 50 to 75 | ≤ 0.1 |
| Cn1cc(S(=O)(=O)N(CC(F)(F)F)[C@H]2CCC3=Cc4c(cnn4-c4ccc(F)cc4)C[C@]3(C(=O)c3cc(F)ccn3)C2)cn1 [Example 260, N-((4aS,6S)-1-(4-fluorophenyl)-4a-(4-fluoropicolinoyl)-4,4a,5,6,7,8-hexahydro-1H-benzo[f]indazol-6-yl)-1-methyl-N-(2,2,2-trifluoroethyl)-1H-pyrazole-4-sulfonamide] | 50 to 75 | ≤ 0.1 |
| Cn1ccnc1S(=O)(=O)N(C1CC1)[C@H]1CCC2=Cc3c(cnn3-c3ccc(F)cc3)C[C@]2(C(=O)c2cc(C(F)(F)F)ccn2)C1 [Example 261, N-cyclopropyl-N-((4aS,6S)-1-(4-fluorophenyl)-4a-(4-(trifluoromethyl)picolinoyl)-4,4a,5,6,7,8-hexahydro-1H-benzo[f]indazol-6-yl)-1-methyl-1H-imidazole-2-sulfonamide] | 50 to 75 | ≤ 0.1 |
| Cn1ncc(S(=O)(=O)N(C2CC2)[C@H]2CCC3=Cc4c(cnn4-c4ccc(F)cc4)C[C@]3(C(=O)c3cc(Cl)ccn3)C2)n1 [Example 262, N-((4aS,6S)-4a-(4-chloropicolinoyl)-1-(4-fluorophenyl)-4,4a,5,6,7,8-hexahydro-1H-benzo[f]indazol-6-yl)-N-cyclopropyl-2-methyl-2H-1,2,3-triazole-4-sulfonamide] | 50 to 75 | ≤ 0.1 |

Other lines, results leading:

| inhibition at 5 min (CYP2C8) [%] | IC50 (GR) [µM] | SMILES |
| --- | --- | --- |
| 50 to 75 | ≤ 0.1 | Cn1ccc(S(=O)(=O)N(CC2CC2)[C@H]2CCC3=Cc4c(cnn4-c4ccc(F)cc4)C[C@]3(C(=O)c3cc(Cl)ccn3)C2)n1 [Example 245, N-((4aS,6S)-4a-(4-chloropicolinoyl)-1-(4-fluorophenyl)-4,4a,5,6,7,8-hexahydro-1H-benzo[f]indazol-6-yl)-N-(cyclopropylmethyl)-1-methyl-1H-pyrazole-3-sulfonamide] |
| 25 to 50 | ≤ 0.1 | Cn1cc(S(=O)(=O)N(CC(C)(C)O)[C@H]2CCC3=Cc4c(cnn4-c4ccc(F)cc4)C[C@]3(C(=O)c3cc(Cl)ccn3)C2)cn1 [Example 246, N-((4aS,6S)-4a-(4-chloropicolinoyl)-1-(4-fluorophenyl)-4,4a,5,6,7,8-hexahydro-1H-benzo[f]indazol-6-yl)-N-(2-hydroxy-2-methylpropyl)-1-methyl-1H-pyrazole-4-sulfonamide] |
| 50 to 75 | ≤ 0.1 | O=C(c1cc(C(F)F)ccn1)[C@]12Cc3cnn(-c4ccc(F)cc4)c3C=C1CC[C@H](N(C1CC1)S(=O)(=O)c1ccc(F)cc1)C2 [Example 247, N-cyclopropyl-N-((4aS,6S)-4a-(4-(difluoromethyl)picolinoyl)-1-(4-fluorophenyl)-4,4a,5,6,7,8-hexahydro-1H-benzo[f]indazol-6-yl)-4-fluorobenzenesulfonamide] |
| 50 to 75 | ≤ 0.1 | Cn1cc(S(=O)(=O)N(CC(F)(F)F)[C@H]2CCC3=Cc4c(cnn4-c4ccc(F)cc4)C[C@]3(C(=O)c3ncc(C(F)(F)F)s3)C2)cn1 [Example 250, N-((4aS,6S)-1-(4-fluorophenyl)-4a-(5-(trifluoromethyl)thiazole-2-carbonyl)-4,4a,5,6,7,8-hexahydro-1H-benzo[f]indazol-6-yl)-1-methyl-N-(2,2,2-trifluoroethyl)-1H-pyrazole-4-sulfonamide] |
| 50 to 75 | ≤ 0.1 | Cn1ccc(S(=O)(=O)N(CC2(O)CC2)[C@H]2CCC3=Cc4c(cnn4-c4ccc(F)cc4)C[C@]3(C(=O)c3ncc(C(F)(F)F)s3)C2)n1 [Example 251, N-((4aS,6S)-1-(4-fluorophenyl)-4a-(5-(trifluoromethyl)thiazole-2-carbonyl)-4,4a,5,6,7,8-hexahydro-1H-benzo[f]indazol-6-yl)-N-((1-hydroxycyclopropyl)methyl)-1-methyl-1H-pyrazole-3-sulfonamide] |
| 50 to 75 | ≤ 0.1 | Cn1ccc(S(=O)(=O)N(CC2(O)CC2)[C@H]2CCC3=Cc4c(cnn4-c4ccc(F)cc4)C[C@]3(C(=O)c3cc(F)ccn3)C2)n1 [Example 255, N-((4aS,6S)-1-(4-fluorophenyl)-4a-(4-fluoropicolinoyl)-4,4a,5,6,7,8-hexahydro-1H-benzo[f]indazol-6-yl)-N-((1-hydroxycyclopropyl)methyl)-1-methyl-1H-pyrazole-3-sulfonamide] |
| 50 to 75 | ≤ 0.1 | Cn1ccc(S(=O)(=O)N(CC2(O)CC2)[C@H]2CCC3=Cc4c(cnn4-c4ccc(F)cc4)C[C@]3(C(=O)c3cc(Cl)ccn3)C2)n1 [Example 257, N-((4aS,6S)-4a-(4-chloropicolinoyl)-1-(4-fluorophenyl)-4,4a,5,6,7,8-hexahydro-1H-benzo[f]indazol-6-yl)-N-((1-hydroxycyclopropyl)methyl)-1-methyl-1H-pyrazole-3-sulfonamide] |
| 25 to 50 | ≤ 0.1 | Cn1ccc(S(=O)(=O)N(C2CC2)[C@H]2CCC3=Cc4c(cnn4-c4ccc(F)cc4)C[C@]3(C(=O)c3ncc(Cl)cn3)C2)n1 [Example 259, N-((4aS,6S)-4a-(5-chloropyrimidine-2-carbonyl)-1-(4-fluorophenyl)-4,4a,5,6,7,8-hexahydro-1H-benzo[f]indazol-6-yl)-N-cyclopropyl-1-methyl-1H-pyrazole-3-sulfonamide] |
| 75 to 90 | ≤ 0.1 | Cn1ncc(S(=O)(=O)N(C2CC2)[C@H]2CCC3=Cc4c(cnn4-c4ccc(F)cc4)C[C@]3(C(=O)c3cc(F)ccn3)C2)n1 [Example 263, N-cyclopropyl-N-((4aS,6S)-1-(4-fluorophenyl)-4a-(4-fluoropicolinoyl)-4,4a,5,6,7,8-hexahydro-1H-benzo[f]indazol-6-yl)-2-methyl-2H-1,2,3-triazole-4-sulfonamide] |

— patent US20210122730A1, “GLUCOCORTICOID RECEPTOR MODULATORS” (ORIC Pharmaceuticals, Inc., priority 2017, published 2021)
